Assay results taken from patent publication US20190211102A1, “METHODS AND COMBINATION THERAPY TO TREAT CANCER” (Array BioPharma Inc., priority 2018, published 2019).
“Also recorded” adds a separate entry of the source.

What was measured:
[1] = plasma pharmacokinetics of ARRY-382, Phase 1b Part A (with pembrolizumab); type: in vivo, human
CSF-1 = experiment: pharmacodynamic analysis of circulating biomarkers: CSF-1 levels, Part A; type: in vivo, human
advanced solid tumors = experiment: preliminary antitumor activity by RECIST version 1.1 and irRC, Part A; type: in vivo, human; conditions: ARRY-382 300 mg cohort, with pembrolizumab
From the text: Key eligibility criteria for Part A was adult patients with confirmed diagnosis of: bladder cancer, head and neck squamous cell cancer, ovarian cancer, triple-negative breast cancer, gastric cancer, metastatic colorectal cancer, or pancreatic ductal adenocarcinoma, refractory to standard of car, with no standard therapy available or for which the patient refused standard therapy; advanced, unresectable, or metastatic melanoma with or without prior treatment; or advanced/metastatic PD-L1-positive non-small cell lung cancer (NSCLC) meeting any of the following criteria: (1) tumors without EGFR or ALK genomic aberrations in patients who had received no prior systemic chemotherapy or had disease progression on or after platinum-containing chemotherapy, or (2) tumors with EGFR or ALK genomic aberrations in patients with disease progression on a US Food and Drug Administration-approved therapy for EGFR or ALK genomic tumor aberrations. Patients who received prior immune checkpoint inhibitor treatment were excluded from the study.
DLTs were determined using standard definitions.

[2] = Bendell et al. 2013, cited from earlier work
[3] = Phase 1b dose escalation (Part A): DLTs, adverse events, RP2D of ARRY-382 with pembrolizumab
Description: DLTs were determined using standard definitions. Adverse events (AEs) and serious AEs were collected to analyze the safety and tolerability of treatment. […] Blood samples for pharmacodynamics analysis of circulating biomarkers, including CSF-1, were collected on days 1, 8, and 15 of cycle 1 and on day 1 of all subsequent cycles.

[4] = Part A, ARRY-382 + pembrolizumab

With `Cc1cccc(Cn2nc(C3CC3)c3c(NC(=O)c4cnc5cc(OCCN6CCN(C)CC6)ccn45)cccc32)n1` [ARRY-382, N-(3-cyclopropyl-1-((6-methylpyridin-2-yl)methyl)-1H-indazol-4-yl)-7-(2-(4-methylpiperazin-1-yl)ethoxy)imidazo[1,2-a]pyridine-3-carboxamide] the “exposure in the 300 mg versus 400 mg dose cohorts” value ([1]; 300 mg vs 400 mg QD) was “similar”, the “dose proportionality of ARRY-382 exposure” value ([1]; 200, 300, 400 mg QD with pembrolizumab) was “generally dose-proportional” and the “PK interactions between ARRY-382 and pembrolizumab” value ([1]; patients, Part A) was “no evidence of any PK interactions”. For the same compound, the “average maximum increase in CSF-1 levels from baseline, 300 mg versus 400 mg cohorts” value (CSF-1; 300 mg vs 400 mg cohorts) was “similar”, the “average maximum increase in CSF-1 levels from baseline” value (CSF-1; ARRY-382 300 mg QD with pembrolizumab) was 5.4 fold and the “relation of increases from baseline in CSF-1 levels to ARRY-382 exposure” value (CSF-1; Part A) was “correlated with increasing ARRY-382 exposure”. The “patients with stable disease per irRC” value (advanced solid tumors) was 3 patients, the “stable disease per RECIST version 1.1, share of patients” value (advanced solid tumors) was 33% and the “stable disease per irRC, share of patients” value (advanced solid tumors) was 50%. The “doses with biological activity” value ([2]; QD) was “greater than or equal to 200 mg”, the “maximum tolerated dose (MTD)” value ([2]; once daily (QD)) was 400 mg and the “dose-limiting toxicities in the 200 mg cohort” value ([3]; ARRY-382 200 mg QD + pembrolizumab, six patients) was “No DTLs occurred; also recorded: No DLTs occurred”. For the same compound, the “patients who discontinued because of an AE of pneumonitis” value ([3]; ARRY-382 200 mg cohort, onset in cycle 4) was “One”, the “patients with dose reductions in the 300 mg cohort” value ([3]; ARRY-382 300 mg cohort) was 3 patients and the “patients who experienced a DLT in the 400 mg cohort” value ([3]; ARRY-382 400 mg QD + pembrolizumab) was 2 of 7 and Two of seven. The “course of AST and CK elevations after interruption of ARRY-382” value ([3]; Part A) was “resolved in all patients; also recorded: reversible”, the “grade 4 events of increased blood CK” value ([3]; Part A) was “one” and the “patients with AST elevation who required dose reduction” value ([3]; Part A) was 2 patients. For the same compound, the “patients with CK elevation who required dose reduction” value ([3]; Part A) was 3 patients, the “patients with immune-related adverse events (investigator-classified)” value ([3]; Part A) was 5 patients and the “most common adverse events of any grade” value ([3]; Part A, 19 patients, ARRY-382 + pembrolizumab) was “increased laboratory values (AST, CK, ALT, alkaline phosphatase (ALP), lipase, amylase), fatigue, pyrexia, and nausea”. The “most common grade 3/4 events (>10%)” value [3, 4] was “increased AST, increased CK, rash, lipase increased, increased ALP, increased ALT, and anemia”, the “patients with grade 3 AST elevation” value [3, 4] was 5 patients and the “on-study deaths (on treatment or within 30 days of last dose)” value ([3]; Part A, cause disease progression in all cases) was 3. The “recommended phase 2 dose (RP2D)” value ([3]; QD continuously, in combination with pembrolizumab 2 mg/kg IV every 3 weeks) was 300 mg and the “immune-related adverse events, manageability” value ([3]; regardless of relationship to study drug) was “observed and were manageable”.
